Data: ChEMBL document CHEMBL3734661, “The chemistry and pharmacology of privileged pyrroloquinazolines” (Medchemcomm, 2015)
Substitutions are numbered along the chain they refer to. Converted amounts (≈) assume the structure as drawn. Values belong to the molecule of their own block, whether it stands above or below them.

What was measured:
[1] = Cytotoxic activity against human HL60 cells; format: functional, cell-based; details: HL-60
[2] = Cytotoxicity against human HCT8 cells assessed as growth inhibition by MTT assay; format: functional; details: HCT-8
[3] = Half life in Beagle dog at 5 mg/kg, po; format: ADME, organism-based, Canis lupus familiaris; details: in vivo
[4] = target: T1, Dihydrofolate reductase (Homo sapiens, UniProt P00374); test: Competitive inhibition of human recombinant DHFR preincubated for 2 mins followed by substrate addition in presence of dihydrofolate
T1 sequence (P00374 whole entry): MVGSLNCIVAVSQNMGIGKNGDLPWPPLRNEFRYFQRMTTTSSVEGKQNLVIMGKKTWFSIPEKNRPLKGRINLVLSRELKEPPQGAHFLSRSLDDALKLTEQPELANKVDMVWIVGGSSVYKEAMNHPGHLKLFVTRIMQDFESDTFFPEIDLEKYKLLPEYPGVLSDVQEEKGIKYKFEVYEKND

[5] = Volume of distribution in Beagle dog at 2.5 mg/kg, iv; format: ADME, organism-based, Canis lupus familiaris; details: in vivo
[6] = Oral bioavailability in Beagle dog at 5 mg/kg; format: ADME, organism-based, Canis lupus familiaris; details: in vivo
[7] = Cmax in Beagle dog at 5 mg/kg, po after 1.8 hrs; format: ADME, organism-based, Canis lupus familiaris; parameters: dose 5 mg/kg, route oral; details: in vivo
[8] = Tmax in Beagle dog at 5 mg/kg, po; format: ADME, organism-based, Canis lupus familiaris; details: in vivo
[9] = Half life in Beagle dog at 2.5 mg/kg, iv; format: ADME, organism-based, Canis lupus familiaris; details: in vivo
[10] = test system: Candida albicans; test: Antifungal activity against Candida albicans after 24 hrs by microtiter method; format: functional
[11] = test system: Human alphaherpesvirus 1; test: Antiviral activity against HSV1 after 1.5 hrs by microtiter plate reader analysis; details: Human alphaherpesvirus 1, 1.5 h
[12] = test system: Plasmodium falciparum; test: Antimalarial activity against Plasmodium falciparum D6 assessed as [3H]hypoxantine incorporation preincubated for 48 hrs followed by [3H]hypoxantine addition measured after 18 hrs by scintillation counting analysis; format: functional, organism-based
[13] = test system: Plasmodium falciparum; test: Antimalarial activity against Plasmodium falciparum W-2 assessed as [3H]hypoxantine incorporation preincubated for 48 hrs followed by [3H]hypoxantine addition measured after 18 hrs by scintillation counting analysis; format: functional, organism-based
[14] = Therapeutic index, ratio of MTD for Sprague-Dawley rat to MCD for Plasmodium berghei infected in Sprague-Dawley rat; details: read-out: TI
[15] = test system: Plasmodium falciparum; test: Antimalarial activity against Plasmodium falciparum TM91C235 assessed as [3H]hypoxantine incorporation preincubated for 48 hrs followed by [3H]hypoxantine addition measured after 18 hrs by scintillation counting analysis; format: functional, organism-based
[16] = test system: Plasmodium falciparum; test: Antimalarial activity against Plasmodium falciparum RCS assessed as [3H]hypoxantine incorporation preincubated for 48 hrs followed by [3H]hypoxantine addition measured after 18 hrs by scintillation counting analysis; format: functional, organism-based
[17] = target: Dihydrofolate reductase (Lactobacillus casei, UniProt P00381); test: Inhibition of DHFR in Lactobacillus casei using dihydrofolate as substrate preincubated for 5 mins followed by substrate addition by spectrofluorometric analysis; parameters: species or system Lacticaseibacillus casei
[18] = Inhibition of DHFR in Crithidia oncopelti using dihydrofolate as substrate preincubated for 5 mins followed by substrate addition by spectrofluorometric analysis
[19] = target: T2, Dihydrofolate reductase (Mus musculus, UniProt P00375); test: Inhibition of DHFR in mouse L1210 cells using dihydrofolate as substrate preincubated for 5 mins followed by substrate addition by spectrofluorometric analysis; format: cell-based
T2 sequence (P00375 whole entry): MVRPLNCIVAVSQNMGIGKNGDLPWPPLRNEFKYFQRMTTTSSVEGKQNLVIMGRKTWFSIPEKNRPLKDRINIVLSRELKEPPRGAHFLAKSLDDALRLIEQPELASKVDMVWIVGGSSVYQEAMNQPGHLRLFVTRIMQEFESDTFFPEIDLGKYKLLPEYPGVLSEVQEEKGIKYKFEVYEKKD

[20] = test system: L1210; test: Cytotoxicity against mouse L1210 cells assessed as growth inhibition after 48 hrs by MTT assay; format: functional, cell-based; details: L1210, 48 h
[21] = target: T3, Dihydrofolate reductase (Rattus norvegicus, UniProt Q920D2); test: Inhibition of rat DHFR extracted from liver using dihydrofolate as substrate preincubated for 5 mins followed by substrate addition by spectrofluorometric analysis
T3 sequence (Q920D2 whole entry): T2 sequence (P00375 whole entry) with P27L, R85Q, R99K, I115V, G155E, V170I

[22] = test system: Candida; test: Antifungal activity against Candida clinical isolates after 24 hrs by microtiter method; format: functional

Compound: CCn1c2ccccc2c2c3c(=O)[nH]c(NCCN(C)C)nc3ccc21
- IC50 [1]: 17000 nM

- half-life [3]: 4 h
- Ki [4]: 0.0003 nM
- Vd [5]: 9.3 L/g
- bioavailability [6]: 49%
- Cmax [7]: 170 ng/mL
- Tmax [8]: 1.8 h
- half-life [9]: 2.8 h
- MIC [10]: 0.025 µg/mL (≈ 0.0882 µM)
Compound: CCC(CC)n1c(C)cc2c3c(N)nc(N)nc3ccc21
- GI50 [2]: 0.74 nM

Compound: Nc1nc(N)c2c(ccc3[nH]ccc32)n1
- Ki [4]: 1 nM

Compound: Cc1cc2c(ccc3nc(N)nc(N)c32)[nH]1
- IC50 [11]: 15000 nM

Compound: CC(=O)N(C(C)=O)c1nc(N(C(C)=O)C(C)=O)c2c(ccc3c2ccn3Cc2ccccc2C(F)(F)F)n1
- IC50 [12]: 0.046 nM
- IC50 [13]: 0.14 nM
- selectivity ratio [14]: 80
- IC50 [15]: 0.16 nM
- IC50 [16]: 0.046 nM

- IC50 [17]: 6.4 nM
- IC50 [18]: 0.7 nM
- IC50 [19]: 4 nM
- IC50 [21]: 2.1 nM
Compound: N#Cc1ccc(Cn2ccc3c4c(N)nc(N)nc4ccc32)cc1
- IC50 [20]: 40 nM

- MIC [22]: 1.39 µg/mL (≈ 5.49 µM)
- MIC [10]: 1.39 µg/mL (≈ 5.49 µM)
Compound: Nc1nc(N)c2c(ccc3c2ccn3CC2CC2)n1

- MIC [22]: 0.64 µg/mL (≈ 2.21 µM)
- MIC [10]: 0.64 µg/mL (≈ 2.21 µM)
Compound: Nc1nc(N)c2c(ccc3c2ccn3Cc2ccccc2)n1
